Assays:
[1] = Cytotoxicity against human U2OS cells assessed as cell growth inhibition at 10 uM after 24 hrs relative to control; format: cell-based
[2] = Cytotoxicity against human U2OS cells assessed as cell growth inhibition at 10 uM after 48 hrs relative to control; format: cell-based
[3] = Cytotoxicity against human HEK293 cells assessed as cell growth inhibition at 10 uM after 24 hrs relative to control; format: cell-based
[4] = Cytotoxicity against human HEK293 cells assessed as cell growth inhibition at 10 uM after 48 hrs relative to control; format: cell-based
[5] = Cytotoxicity against human hTERT cells assessed as cell growth inhibition at 10 uM after 24 hrs relative to control; format: cell-based, hTERT-BJ
[6] = Cytotoxicity against human hTERT cells assessed as cell growth inhibition at 10 uM after 48 hrs relative to control; format: cell-based, hTERT-BJ
[7] = Cytotoxicity against human MCF7 cells assessed as cell growth inhibition at 10 uM after 24 hrs relative to control; format: cell-based
[8] = Cytotoxicity against human MCF7 cells assessed as cell growth inhibition at 10 uM after 48 hrs relative to control; format: cell-based
CYP1A2 = target: T1, CYP1A2 (Homo sapiens, UniProt P05177); experiment: Inhibition of CYP1A2 (unknown origin) at 10 uM relative to control; format: ADME
T1 sequence (P05177 whole entry): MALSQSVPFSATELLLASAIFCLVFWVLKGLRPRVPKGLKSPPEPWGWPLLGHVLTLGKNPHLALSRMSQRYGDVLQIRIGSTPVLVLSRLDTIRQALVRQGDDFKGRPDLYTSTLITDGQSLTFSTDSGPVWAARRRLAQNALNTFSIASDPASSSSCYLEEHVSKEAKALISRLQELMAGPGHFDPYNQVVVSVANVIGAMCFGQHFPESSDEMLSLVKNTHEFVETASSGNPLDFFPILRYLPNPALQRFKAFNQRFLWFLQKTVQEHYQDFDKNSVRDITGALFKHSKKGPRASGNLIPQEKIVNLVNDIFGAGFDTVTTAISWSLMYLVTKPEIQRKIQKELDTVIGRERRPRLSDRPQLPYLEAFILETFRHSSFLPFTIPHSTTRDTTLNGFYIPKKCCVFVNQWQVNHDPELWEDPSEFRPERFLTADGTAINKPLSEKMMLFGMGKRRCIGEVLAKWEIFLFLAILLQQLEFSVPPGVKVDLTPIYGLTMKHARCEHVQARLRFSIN

CYP2C9 = CYP2C9 (Homo sapiens, UniProt P11712); experiment: Inhibition of CYP2C9 (unknown origin) at 10 uM relative to control; format: ADME
Sequence of CYP2C9 (P11712 whole entry): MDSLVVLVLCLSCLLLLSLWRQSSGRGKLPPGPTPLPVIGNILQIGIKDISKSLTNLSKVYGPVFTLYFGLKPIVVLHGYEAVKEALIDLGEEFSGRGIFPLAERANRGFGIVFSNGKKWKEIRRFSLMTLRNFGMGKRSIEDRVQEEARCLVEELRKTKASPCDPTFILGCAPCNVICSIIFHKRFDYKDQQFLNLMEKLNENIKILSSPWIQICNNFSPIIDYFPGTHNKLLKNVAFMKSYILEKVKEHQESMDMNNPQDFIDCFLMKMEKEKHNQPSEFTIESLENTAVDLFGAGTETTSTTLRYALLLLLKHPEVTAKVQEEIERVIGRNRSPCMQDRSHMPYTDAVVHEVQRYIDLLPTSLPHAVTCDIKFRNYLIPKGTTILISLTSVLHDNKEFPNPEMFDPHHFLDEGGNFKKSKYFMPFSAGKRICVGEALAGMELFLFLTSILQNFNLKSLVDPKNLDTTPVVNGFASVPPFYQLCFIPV

CYP2C19 = CYP2C19 (Homo sapiens, UniProt P33261); experiment: Inhibition of CYP2C19 (unknown origin) at 10 uM relative to control; format: ADME
Sequence of CYP2C19 (P33261 whole entry): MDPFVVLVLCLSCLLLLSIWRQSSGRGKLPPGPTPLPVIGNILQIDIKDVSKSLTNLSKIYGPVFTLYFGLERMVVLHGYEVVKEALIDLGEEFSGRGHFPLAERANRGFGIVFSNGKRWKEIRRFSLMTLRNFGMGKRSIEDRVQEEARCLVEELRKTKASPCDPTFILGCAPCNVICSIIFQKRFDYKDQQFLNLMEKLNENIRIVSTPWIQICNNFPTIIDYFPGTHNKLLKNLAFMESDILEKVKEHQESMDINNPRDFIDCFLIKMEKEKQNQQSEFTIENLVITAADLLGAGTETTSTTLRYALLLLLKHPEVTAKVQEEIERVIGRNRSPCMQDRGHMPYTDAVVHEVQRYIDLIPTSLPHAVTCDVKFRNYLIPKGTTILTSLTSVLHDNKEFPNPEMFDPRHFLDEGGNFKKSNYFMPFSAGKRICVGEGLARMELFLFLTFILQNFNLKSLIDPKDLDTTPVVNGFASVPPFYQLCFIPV

CYP2D6 = CYP2D6 (Homo sapiens, UniProt P10635); experiment: Inhibition of CYP2D6 (unknown origin) at 10 uM relative to control; format: ADME
Sequence of CYP2D6 (P10635 whole entry): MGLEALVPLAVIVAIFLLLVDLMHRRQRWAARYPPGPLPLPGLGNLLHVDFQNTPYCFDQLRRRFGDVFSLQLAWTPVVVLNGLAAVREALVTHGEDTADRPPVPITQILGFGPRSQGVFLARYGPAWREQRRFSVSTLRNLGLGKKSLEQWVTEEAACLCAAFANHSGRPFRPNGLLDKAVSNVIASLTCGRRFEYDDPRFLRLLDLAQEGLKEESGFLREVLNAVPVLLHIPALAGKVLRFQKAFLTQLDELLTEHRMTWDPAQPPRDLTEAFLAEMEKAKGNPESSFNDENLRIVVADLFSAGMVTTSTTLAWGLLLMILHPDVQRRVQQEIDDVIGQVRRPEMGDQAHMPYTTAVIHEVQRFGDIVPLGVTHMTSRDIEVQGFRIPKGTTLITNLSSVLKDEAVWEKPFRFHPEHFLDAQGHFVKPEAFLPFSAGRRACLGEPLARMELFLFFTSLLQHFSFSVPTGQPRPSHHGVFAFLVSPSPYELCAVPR

CYP3A4 = CYP3A4 (Homo sapiens, UniProt P08684); experiment: Inhibition of CYP3A4 (unknown origin) at 10 uM relative to control; format: ADME
SIRT7 = target: T2, SIRT7 (Homo sapiens, UniProt Q9NRC8); experiment: Inhibition of SIRT7 (unknown origin) at 10 uM relative to control
T2 sequence (Q9NRC8 whole entry): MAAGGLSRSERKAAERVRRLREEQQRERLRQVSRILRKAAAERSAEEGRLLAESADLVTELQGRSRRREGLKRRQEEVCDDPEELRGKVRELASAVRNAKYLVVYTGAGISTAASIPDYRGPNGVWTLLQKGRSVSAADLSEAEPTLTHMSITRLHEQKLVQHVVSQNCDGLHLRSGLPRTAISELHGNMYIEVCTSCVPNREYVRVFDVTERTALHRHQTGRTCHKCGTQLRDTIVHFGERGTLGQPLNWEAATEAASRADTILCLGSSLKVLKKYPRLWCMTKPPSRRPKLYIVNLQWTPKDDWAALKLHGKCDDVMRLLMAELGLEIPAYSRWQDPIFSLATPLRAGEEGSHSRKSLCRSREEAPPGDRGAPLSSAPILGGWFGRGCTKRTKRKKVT

HDAC4 = HDAC4 (Homo sapiens, UniProt P56524); experiment: Inhibition of HDAC4 (unknown origin) at 10 uM relative to control
Sequence of HDAC4 (P56524 whole entry): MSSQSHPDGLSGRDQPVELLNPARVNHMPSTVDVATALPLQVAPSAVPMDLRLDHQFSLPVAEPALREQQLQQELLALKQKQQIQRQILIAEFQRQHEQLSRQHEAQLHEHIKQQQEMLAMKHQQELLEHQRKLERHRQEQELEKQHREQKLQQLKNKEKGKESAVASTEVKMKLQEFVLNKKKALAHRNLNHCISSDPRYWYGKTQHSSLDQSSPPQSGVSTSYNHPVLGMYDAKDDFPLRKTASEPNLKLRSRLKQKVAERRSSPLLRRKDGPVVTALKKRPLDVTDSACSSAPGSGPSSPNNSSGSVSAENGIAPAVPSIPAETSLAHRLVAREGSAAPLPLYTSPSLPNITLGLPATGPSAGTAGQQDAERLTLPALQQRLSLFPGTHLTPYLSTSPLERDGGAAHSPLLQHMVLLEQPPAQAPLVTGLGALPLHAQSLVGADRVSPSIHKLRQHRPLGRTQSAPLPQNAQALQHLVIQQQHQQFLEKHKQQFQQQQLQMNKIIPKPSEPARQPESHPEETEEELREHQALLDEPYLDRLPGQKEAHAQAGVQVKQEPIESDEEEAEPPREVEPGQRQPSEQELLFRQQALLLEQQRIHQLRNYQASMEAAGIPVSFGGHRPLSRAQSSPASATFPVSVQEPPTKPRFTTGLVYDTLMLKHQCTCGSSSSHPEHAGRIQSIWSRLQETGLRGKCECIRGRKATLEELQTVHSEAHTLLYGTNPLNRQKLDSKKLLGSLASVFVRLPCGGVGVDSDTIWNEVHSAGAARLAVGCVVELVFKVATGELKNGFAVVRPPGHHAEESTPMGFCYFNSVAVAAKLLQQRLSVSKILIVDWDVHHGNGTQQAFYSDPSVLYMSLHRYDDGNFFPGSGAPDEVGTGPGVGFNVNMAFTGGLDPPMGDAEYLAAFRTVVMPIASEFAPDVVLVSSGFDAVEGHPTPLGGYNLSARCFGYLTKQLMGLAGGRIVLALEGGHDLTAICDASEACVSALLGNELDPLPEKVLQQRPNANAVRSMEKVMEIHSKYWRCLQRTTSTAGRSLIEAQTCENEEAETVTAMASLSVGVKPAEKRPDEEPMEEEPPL

HDAC8 = target: T3, HDAC8 (Homo sapiens, UniProt Q9BY41); experiment: Inhibition of HDAC8 (unknown origin) at 10 uM relative to control
T3 sequence (Q9BY41 whole entry): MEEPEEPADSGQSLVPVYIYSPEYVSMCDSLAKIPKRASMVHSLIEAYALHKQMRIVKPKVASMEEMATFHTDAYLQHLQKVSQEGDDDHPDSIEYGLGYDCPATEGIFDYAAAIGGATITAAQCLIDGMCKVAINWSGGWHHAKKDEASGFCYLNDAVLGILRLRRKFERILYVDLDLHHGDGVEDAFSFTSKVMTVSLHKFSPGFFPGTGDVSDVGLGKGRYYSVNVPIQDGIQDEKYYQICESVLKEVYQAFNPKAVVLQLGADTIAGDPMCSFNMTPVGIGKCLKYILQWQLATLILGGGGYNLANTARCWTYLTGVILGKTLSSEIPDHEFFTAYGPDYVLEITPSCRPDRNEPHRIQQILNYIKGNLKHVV

HDAC9 = HDAC9 (Homo sapiens, UniProt Q9UKV0); experiment: Inhibition of HDAC9 (unknown origin) at 10 uM relative to control
Sequence of HDAC9 (Q9UKV0 whole entry): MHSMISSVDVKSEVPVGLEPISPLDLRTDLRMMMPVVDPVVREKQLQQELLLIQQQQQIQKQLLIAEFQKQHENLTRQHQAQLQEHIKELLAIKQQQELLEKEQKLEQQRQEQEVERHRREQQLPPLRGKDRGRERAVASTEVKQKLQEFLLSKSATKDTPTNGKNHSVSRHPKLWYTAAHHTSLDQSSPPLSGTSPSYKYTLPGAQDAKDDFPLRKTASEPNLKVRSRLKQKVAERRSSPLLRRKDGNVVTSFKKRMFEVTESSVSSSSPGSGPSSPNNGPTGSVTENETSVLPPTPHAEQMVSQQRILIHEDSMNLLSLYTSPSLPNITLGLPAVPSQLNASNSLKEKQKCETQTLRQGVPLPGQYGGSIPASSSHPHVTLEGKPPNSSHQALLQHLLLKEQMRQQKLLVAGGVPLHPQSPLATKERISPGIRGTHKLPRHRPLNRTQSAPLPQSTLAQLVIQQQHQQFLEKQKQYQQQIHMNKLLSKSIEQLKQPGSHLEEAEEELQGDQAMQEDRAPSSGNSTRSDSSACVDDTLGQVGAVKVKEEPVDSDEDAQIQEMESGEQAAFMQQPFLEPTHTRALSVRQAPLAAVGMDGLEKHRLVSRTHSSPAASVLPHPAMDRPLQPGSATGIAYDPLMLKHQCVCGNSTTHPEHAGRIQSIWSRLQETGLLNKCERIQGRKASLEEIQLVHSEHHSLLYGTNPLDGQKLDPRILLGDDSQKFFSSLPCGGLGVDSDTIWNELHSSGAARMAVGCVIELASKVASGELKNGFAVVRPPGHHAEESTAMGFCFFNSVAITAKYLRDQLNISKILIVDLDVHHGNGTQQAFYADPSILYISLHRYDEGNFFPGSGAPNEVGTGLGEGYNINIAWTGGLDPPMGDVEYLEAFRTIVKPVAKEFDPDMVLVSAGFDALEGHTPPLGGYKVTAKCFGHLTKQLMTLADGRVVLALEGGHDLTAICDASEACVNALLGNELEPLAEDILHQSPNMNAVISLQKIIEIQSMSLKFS

[9] = target: 3',5'-cyclic-AMP phosphodiesterase 4C (Homo sapiens) (UniProt Q08493); experiment: Inhibition of PDE4C1 (unknown origin) at 10 uM relative to control
Sequence of 3',5'-cyclic-AMP phosphodiesterase 4C (Homo sapiens) (Q08493 whole entry): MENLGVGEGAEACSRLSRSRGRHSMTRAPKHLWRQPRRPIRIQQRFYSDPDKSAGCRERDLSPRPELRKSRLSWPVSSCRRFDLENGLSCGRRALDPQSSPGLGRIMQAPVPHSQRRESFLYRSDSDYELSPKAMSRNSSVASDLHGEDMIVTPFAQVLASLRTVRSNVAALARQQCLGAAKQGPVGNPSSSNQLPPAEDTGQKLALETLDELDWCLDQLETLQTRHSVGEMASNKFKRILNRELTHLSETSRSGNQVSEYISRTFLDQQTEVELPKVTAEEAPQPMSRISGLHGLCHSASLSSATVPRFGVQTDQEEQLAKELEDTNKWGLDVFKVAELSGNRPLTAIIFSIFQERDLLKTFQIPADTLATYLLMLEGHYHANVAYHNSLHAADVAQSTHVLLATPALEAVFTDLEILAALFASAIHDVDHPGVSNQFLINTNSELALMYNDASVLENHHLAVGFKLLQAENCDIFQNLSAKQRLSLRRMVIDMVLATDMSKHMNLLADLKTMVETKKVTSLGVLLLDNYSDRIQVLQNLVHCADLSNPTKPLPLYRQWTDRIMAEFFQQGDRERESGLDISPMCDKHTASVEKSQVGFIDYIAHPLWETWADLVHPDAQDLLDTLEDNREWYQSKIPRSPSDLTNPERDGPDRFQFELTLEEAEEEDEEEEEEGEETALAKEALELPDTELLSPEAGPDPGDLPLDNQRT

Aurora B = Aurora B (Homo sapiens, UniProt Q96GD4); experiment: Inhibition of Aurora B (unknown origin) at 10 uM relative to control
Sequence of Aurora B (Q96GD4 whole entry): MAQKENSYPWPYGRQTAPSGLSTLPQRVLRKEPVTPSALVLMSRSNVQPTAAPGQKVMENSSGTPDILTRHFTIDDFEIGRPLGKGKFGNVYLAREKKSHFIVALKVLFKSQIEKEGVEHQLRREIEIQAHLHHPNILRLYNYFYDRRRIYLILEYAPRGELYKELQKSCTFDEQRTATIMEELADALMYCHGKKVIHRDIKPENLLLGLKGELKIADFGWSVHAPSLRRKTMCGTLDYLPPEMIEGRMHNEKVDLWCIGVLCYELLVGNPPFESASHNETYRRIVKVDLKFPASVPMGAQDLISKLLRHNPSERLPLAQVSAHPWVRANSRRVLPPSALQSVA

inhibition at 10 µM (CYP1A2)	inhibition at 10 µM (CYP2C9)	inhibition at 10 µM (CYP2C19)	inhibition at 10 µM (CYP2D6)	inhibition at 10 µM (CYP3A4)	inhibition at 10 µM (SIRT7)	inhibition at 10 µM (HDAC4)	inhibition at 10 µM (HDAC8)	inhibition at 10 µM (HDAC9)	inhibition [9]	inhibition at 10 µM (Aurora B)	SMILES	inhibition at 24 h, 10 µM [1]	inhibition at 48 h, 10 µM [2]	inhibition at 24 h, 10 µM [3]	inhibition at 48 h, 10 µM [4]	inhibition at 24 h, 10 µM [5]	inhibition at 48 h, 10 µM [6]	inhibition at 24 h, 10 µM [7]	inhibition at 48 h, 10 µM [8]
< 50%	< 50%	< 50%	< 50%	< 50%	< 50%	< 50%	< 50%	< 50%	< 50%	< 50%	Cc1cc(OCC(=O)O)cc(C)c1Cc1ccc(O)cc1	< 50%	< 50%	< 50%	< 50%	< 50%	< 50%	< 50%	< 50%
< 50%	< 50%	< 50%	< 50%	51%	< 50%	< 50%	< 50%	< 50%	< 50%	< 50%	Cc1cc(OCC(=O)O)cc(C)c1Cc1ccc(N)c(C(C)C)c1	< 50%	< 50%	< 50%	< 50%	< 50%	< 50%	< 50%	< 50%
< 50%	< 50%	< 50%	< 50%	< 50%	< 50%	< 50%	< 50%	< 50%	< 50%	< 50%	CC(=O)Nc1ccc(Cc2c(C)cc(OCC(=O)O)cc2C)cc1C(C)C	< 50%	< 50%	< 50%	< 50%	< 50%	< 50%	< 50%	< 50%
